We go through 16 molecules from patent publication US20260007639A1, “COMPOUNDS FOR THE TREATMENT OF NEUROMUSCULAR DISORDERS” (NMD PHARMA A/S, priority 2017, published 2026).

One assay concerns the target T1, CIC-1 channels (Rattus norvegicus, UniProt P35524).
T1 sequence (P35524 1-994): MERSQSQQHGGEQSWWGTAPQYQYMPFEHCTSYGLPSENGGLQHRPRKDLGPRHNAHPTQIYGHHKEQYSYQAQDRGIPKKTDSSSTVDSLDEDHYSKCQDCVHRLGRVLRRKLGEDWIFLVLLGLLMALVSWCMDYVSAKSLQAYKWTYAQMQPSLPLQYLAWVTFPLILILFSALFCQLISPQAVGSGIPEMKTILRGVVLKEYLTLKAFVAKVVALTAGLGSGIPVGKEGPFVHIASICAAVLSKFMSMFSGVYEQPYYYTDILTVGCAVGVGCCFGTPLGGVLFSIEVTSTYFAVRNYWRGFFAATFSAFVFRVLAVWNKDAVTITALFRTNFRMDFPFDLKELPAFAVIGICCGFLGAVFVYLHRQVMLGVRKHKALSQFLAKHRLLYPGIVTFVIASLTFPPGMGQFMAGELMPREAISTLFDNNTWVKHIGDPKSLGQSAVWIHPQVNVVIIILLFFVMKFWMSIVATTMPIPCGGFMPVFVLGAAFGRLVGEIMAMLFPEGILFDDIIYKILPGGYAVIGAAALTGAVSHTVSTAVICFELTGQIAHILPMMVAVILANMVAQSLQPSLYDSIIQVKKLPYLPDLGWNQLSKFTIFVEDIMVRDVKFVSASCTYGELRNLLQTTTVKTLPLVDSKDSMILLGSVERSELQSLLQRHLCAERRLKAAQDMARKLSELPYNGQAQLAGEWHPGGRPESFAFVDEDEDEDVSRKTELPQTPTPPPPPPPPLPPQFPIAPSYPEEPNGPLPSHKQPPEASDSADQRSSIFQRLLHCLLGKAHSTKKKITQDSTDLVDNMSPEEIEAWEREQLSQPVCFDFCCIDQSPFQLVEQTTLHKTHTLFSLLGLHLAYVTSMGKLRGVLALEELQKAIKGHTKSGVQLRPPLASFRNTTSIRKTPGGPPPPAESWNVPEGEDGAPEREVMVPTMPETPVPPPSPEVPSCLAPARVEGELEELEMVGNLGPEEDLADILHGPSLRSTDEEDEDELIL
Description: Electrophysiological measurement of compound inhibition of CIC-1 (Gm) in rat soleus muscle fibres: EC50 (Table 7).

The next assay deals with rat soleus muscles. Description: Recovery of force in isolated rat soleus nerve-muscle preparations after 115 nM tubocurarine, 50 μM compound (Table 8). As to conditions: 40 mins exposure. As for the experimental part:
Force traces from a representative muscle stimulated to contract in 1) control condition before addition of neuromuscular blocking agent, 2) the force response to stimulation after 90 minutes incubation with Tubocurarine. […] The traces presented in FIG. 12A (1, 2, 3), correspond to the dotted lines in FIG. 12B, respectively.
Recovery of force is quantified as the percentage of the force prior to tubocurarine that is recovered by the compound.
The current invention relates to compounds that inhibit CIC-1 ion channels and increase muscle excitability and thereby improve muscle function in clinical conditions where muscle activation is failing. Such conditions result in loss of contractile function of skeletal muscle, weakness and excessive fatigue. In this series of experiments the compounds were tested for their ability to restore contractile function of isolated rat muscle when the neuromuscular transmission had been compromised akin to neuromuscular disorders.
Experimentally, soleus muscles from 4-5 wk old rats were isolated with the motor nerve remaining attached. The nerve-muscle preparations were mounted in experimental setups that enabled electrical stimulation of the motor nerve. Stimulation of the motor nerve led to activation of the muscle fibres and ensuing force production that was recorded.
After mounting the nerve-muscle preparation in the experimental setup, the contractile function of the muscle was initially assessed under the control conditions (FIG. 2A). […] The experimental condition mimics the failing neuromuscular transmission in a range of neuromuscular disorders. After addition of tubocurarine the contractile force declined over the next 90 mins to 10-50% of the control force. 50 μM of the test compound was then added and the contractile force recovered despite the continued presence of tubocurarine. To quantify the ability of the compound to restore force the percentage of the initial force that was restored was determined after 40 mins of compound exposure (FIG. 2B) and the point increase is reported in Table 8.

What is called pEC50 is the negative decadic logarithm of the EC50, by convention in mol/L. Read a high pEC50 as a small EC50.

pEC50: −log10 of the molar value. Bounds are passed on as bounds.

As to `C[C@@H](Oc1ccc(Br)cc1-c1ccno1)C(=O)O` [(2R)-A-22], the negative logarithm of the EC50 (pEC50) on CIC-1 channels is less than 4.10. Moreover, the “Point increase (%) of initial force that was restored” value (from here on “Point increase (%)”) in the assay on rat soleus muscles was −3%.
On CIC-1 channels, `CC[C@H](Oc1ccc(Br)cc1-c1ccno1)C(=O)O` [Compound A-1, (2S)-2-[4-bromo-2-(1,2-oxazol-5-yl)phenoxy]butanoic acid] had a pEC50 of 4.91. Moreover, in the assay on rat soleus muscles, the “Point increase (%)” value came out at 18%.
At CIC-1 channels, `CC(C)[C@H](Oc1ccc(Br)cc1-c1ccon1)C(=O)O` [Compound A-3, (2S)-2-[4-bromo-2-(1,2-oxazol-3-yl)phenoxy]-3-methylbutanoic acid] showed a negative-log EC50 (pEC50) of 4.94.
On CIC-1 channels, `C[C@H](Oc1ccc(Br)cc1-c1cc(C2CC2)on1)C(=O)O` [Compound A-11, (2S)-2-[4-bromo-2-(5-cyclopropyl-1,2-oxazol-3-yl)phenoxy]propanoic acid] had a negative-log EC50 (pEC50) of 4.99. Further, the “Point increase (%)” value in the assay on rat soleus muscles was found to be 19%.
Turning to `O=C(O)[C@H](CF)Oc1ccc(Br)cc1-c1ccno1` [Compound A-21, (2R)-2-[4-bromo-2-(1,2-oxazol-5-yl)phenoxy]-3-fluoropropanoic acid], the “Point increase (%)” value with rat soleus muscles stood at 13%.
`CC[C@H](Oc1ccc(Cl)cc1-c1ccon1)C(=O)O` [Compound A-35, (2S)-2-[4-chloro-2-(1,2-oxazol-3-yl)phenoxy]butanoic acid] gave a negative-log EC50 (pEC50) at CIC-1 channels of 4.98. Further, the “Point increase (%)” value in the assay with rat soleus muscles came to 28%.
With `O=C(O)[C@H](CF)Oc1ccc(Cl)cc1-c1ccon1` [Compound A-39, (2R)-2-[4-chloro-2-(1,2-oxazol-3-yl)phenoxy]-3-fluoropropanoic acid], the negative logarithm of the EC50 (pEC50) at CIC-1 channels was 5.28. Also, the “Point increase (%)” value in the assay with rat soleus muscles is 36%.
For `C[C@H](Oc1ccc(Cl)cc1-c1cocn1)C(=O)O` [Compound A-46, (2S)-2-[4-chloro-2-(1,3-oxazol-4-yl)phenoxy]propanoic acid], the “Point increase (%)” value with rat soleus muscles was 11%.
For the molecule `O=C(O)[C@H](CF)Oc1cc(F)c(Cl)cc1-c1ccon1` [Compound A-47, (2R)-2-[4-chloro-5-fluoro-2-(1,2-oxazol-3-yl)phenoxy]-3-fluoropropanoic acid], the negative logarithm of the EC50 (pEC50) at CIC-1 channels is 5.11. In addition, the “Point increase (%)” value in the assay on rat soleus muscles stood at 19%.
As for `CC[C@H](Oc1ccc(Cl)cc1-c1ccno1)C(=O)O` [Compound A-49, (2S)-2-[4-chloro-2-(1,2-oxazol-5-yl)phenoxy]butanoic acid], the “Point increase (%)” value in the assay on rat soleus muscles came out at 16%.
On to `O=C(O)[C@H](CC1CC1)Oc1ccc(Cl)cc1-c1ccno1` [Compound A-52, (2S)-2-[4-chloro-2-(1,2-oxazol-5-yl)phenoxy]-3-cyclopropylpropanoic acid], for which, in the assay with rat soleus muscles, the “Point increase (%)” value is listed as 11%.
As for `O=C(O)[C@H](CF)Oc1ccc(Br)cc1-c1csnn1` [Compound A-66, (2R)-2-[4-bromo-2-(1,2,3-thiadiazol-4-yl)phenoxy]-3-fluoropropanoic acid], the “Point increase (%)” value in the assay with rat soleus muscles worked out at 13%.
`CC[C@H](Oc1ccc(Br)cc1-c1csnn1)C(=O)O` [Compound A-67, (2S)-2-[4-bromo-2-(1,2,3-thiadiazol-4-yl)phenoxy]butanoic acid]: the “Point increase (%)” value in the assay with rat soleus muscles turned out to be 13%.
Same read-out and setting: the same measure for `O=C(O)[C@H](CC1CC1)Oc1ccc(Br)cc1-c1csnn1` [Compound A-75, (2S)-2-[4-bromo-2-(1,2,3-thiadiazol-4-yl)phenoxy]-3-cyclopropylpropanoic acid]: 10%.
For `O=C(O)COc1ccc(Cl)cc1-c1ccno1` [Compound A-78, 2-[4-chloro-2-(1,2-oxazol-5-yl)phenoxy]acetic acid], the “Point increase (%)” value in the assay on rat soleus muscles came to 17%.
Take `O=C(O)COc1ccc(Br)cc1-c1csnn1` [Compound A-79, 2-[4-bromo-2-(1,2,3-thiadiazol-4-yl)phenoxy]acetic acid]: the “Point increase (%)” value in the assay on rat soleus muscles worked out at 17%.
